In patent US11667602B2, “Compounds and their use” (AstraZeneca AB, priority 2020, dated 2023):

Target: T1, human RXFP1 (Homo sapiens, UniProt Q9HBX9)
T1 sequence (Q9HBX9 1-757): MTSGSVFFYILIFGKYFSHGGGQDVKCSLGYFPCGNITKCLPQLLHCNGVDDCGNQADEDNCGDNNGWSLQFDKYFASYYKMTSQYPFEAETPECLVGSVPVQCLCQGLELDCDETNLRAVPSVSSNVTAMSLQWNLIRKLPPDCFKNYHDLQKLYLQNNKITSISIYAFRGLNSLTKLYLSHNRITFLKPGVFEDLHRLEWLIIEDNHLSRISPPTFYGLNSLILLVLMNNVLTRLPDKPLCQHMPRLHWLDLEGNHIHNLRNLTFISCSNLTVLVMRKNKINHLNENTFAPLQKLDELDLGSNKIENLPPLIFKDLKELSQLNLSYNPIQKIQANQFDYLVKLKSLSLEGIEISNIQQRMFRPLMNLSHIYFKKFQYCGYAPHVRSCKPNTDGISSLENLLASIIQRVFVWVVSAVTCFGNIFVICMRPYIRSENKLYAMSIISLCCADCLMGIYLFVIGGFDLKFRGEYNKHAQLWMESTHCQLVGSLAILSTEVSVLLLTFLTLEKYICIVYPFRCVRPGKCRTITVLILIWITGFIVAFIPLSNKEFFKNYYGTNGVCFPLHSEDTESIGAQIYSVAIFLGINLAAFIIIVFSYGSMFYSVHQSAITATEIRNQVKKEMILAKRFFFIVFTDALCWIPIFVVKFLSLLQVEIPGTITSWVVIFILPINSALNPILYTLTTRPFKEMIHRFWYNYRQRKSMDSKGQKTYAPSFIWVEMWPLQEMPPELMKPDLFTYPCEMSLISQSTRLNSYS
Assay: RXFP1 Hu cAMP (Test A)
Type: cell-based
Design: expressed in transfected cells; host or cells: Jump-In T-REx CHO-K1 cells (ThermoFisher), induced with 10 ng/ml doxycycline for 24 h
Conditions: RXFP1 Hu cAMP; for EC50: read-out: Test A EC50
Method in brief: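 Read-out is HTRF signal, inversely proportional to cAMP, converted to cAMP amount by standard curve. Stimulation occurred in inducible CHO-K1 cells expressing the human receptor with phosphodiesterases blocked by 0.5 mM IBMX.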

Row | SMILES | Test A Sinf [%] | EC50 [nM]
1 | COc1cc(F)c(O[C@H]2CC[C@@H](C(=O)O)CC2)cc1C(=O)N[C@@H]1[C@H](C(=O)Nc2ccc(F)c(C(F)(F)F)c2)[C@H]2C=C[C@@H]1C2 [Example 501, (1R,4s)-4-(2-Fluoro-5-(((1S,2S,3R,4R)-3-((4-fluoro-3-(trifluoromethyl)phenyl)carbamoyl)bicyclo[2.2.1]hept-5-en-2-yl)carbamoyl)-4-methoxyphenoxy)cyclohexane-1-carboxylic acid] | 82 | 
2 | COc1cc(F)c(O[C@H]2C[C@@](C)(C(=O)O)C2)cc1C(=O)N[C@@H]1[C@@H]2CC[C@@H](C2)[C@@H]1C(=O)Nc1cccc(S(=O)(=O)C(F)(F)F)c1 [Example 505, (1S,3s)-3-(2-Fluoro-4-methoxy-5-(((1R,2R,3S,4S)-3-((3-((trifluoromethyl)sulfonyl)phenyl)carbamoyl)bicyclo[2.2.1]heptan-2-yl)carbamoyl)phenoxy)-1-methylcyclobutane-1-carboxylic acid] | 94 | 14
3 | COc1cc(F)c(O[C@H]2CC[C@@](OC)(C(=O)O)CC2)cc1C(=O)N[C@@H]1[C@H]2CC[C@H](C2)[C@@H]1C(=O)NCC1(C)CCC1 [Example 506, (1R,4r)-4-(2-Fluoro-4-methoxy-5-(((1S,2R,3S,4R)-3-(((1-methylcyclobutyl)methyl)carbamoyl)bicyclo[2.2.1]heptan-2-yl)carbamoyl)phenoxy)-1-methoxycyclohexane-1-carboxylic acid] | 98 | 320
4 | COc1cc(F)c(O[C@H]2CC[C@@](O)(C(=O)O)CC2)cc1C(=O)N[C@@H]1[C@H]2CC[C@H](C2)[C@@H]1C(=O)NCC1(C)CCC1 [Example 507, (1R,4r)-4-(2-Fluoro-4-methoxy-5-(((1S,2R,3S,4R)-3-(((1-methylcyclobutyl)methyl)carbamoyl)bicyclo[2.2.1]heptan-2-yl)carbamoyl)phenoxy)-1-hydroxycyclohexane-1-carboxylic acid] | 118 | 540
5 | COc1cc(F)c(O[C@H]2CC[C@@](OC)(C(=O)O)CC2)cc1C(=O)N[C@@H]1[C@@H]2CC[C@@H](C2)[C@@H]1C(=O)Nc1cccc(S(=O)(=O)C(F)(F)F)c1 [Example 508, (1R,4r)-4-(2-Fluoro-4-methoxy-5-(((1R,2R,3S,4S)-3-((3-((trifluoromethyl)sulfonyl)phenyl)carbamoyl)bicyclo[2.2.1]heptan-2-yl)carbamoyl)phenoxy)-1-methoxycyclohexane-1-carboxylic acid] | 112 | 13
6 | COc1cc(F)c(O[C@H]2CC[C@@H](C(=O)O)CC2)cc1C(=O)N[C@H]1[C@H]2CC[C@H](C2)[C@H]1C(=O)Nc1cccc(S(F)(F)(F)(F)F)c1 [Example 510, (1R,4s)-4-(2-Fluoro-4-methoxy-5-(((1S,2S,3R,4R)-3-((3-(pentafluoro-6-sulfaneyl)phenyl)carbamoyl)bicyclo[2.2.1]heptan-2-yl)carbamoyl)phenoxy)cyclohexane-1-carboxylic acid] | 63 | 1600
7 | COc1cc(F)c(O[C@H]2CC[C@@H](C(N)=O)CC2)cc1C(=O)N[C@@H]1[C@@H]2CC[C@@H](C2)[C@@H]1C(=O)Nc1cccc(S(F)(F)(F)(F)F)c1 [Example 511, (1S,2S,3R,4R)-3-(5-(((1s,4S)-4-Carbamoylcyclohexyl)oxy)-4-fluoro-2-methoxybenzamido)-N-(3-(pentafluoro-A6-sulfaneyl)phenyl)bicyclo[2.2.1]heptane-2-carboxamide] | 117 | 37
8 | COc1cc(F)c(OC2CCC(C)(C(=O)O)CC2)cc1C(=O)NC1COCC1C(=O)Nc1ccc(F)c(S(F)(F)(F)(F)F)c1 [Example 564, (1R,4s)-4-(2-Fluoro-5-(((3S*,4R*)-4-((4-fluoro-3-(pentafluoro-λ6-sulfaneyl)phenyl)carbamoyl)tetrahydrofuran-3-yl)carbamoyl)-4-methoxyphenoxy)-1-methylcyclohexane-1-carboxylic acid] |  | > 40000
9 | COc1cc(F)c(OC2CCC(C)(C(=O)O)CC2)cc1C(=O)NC1COCC1C(=O)NCC1(C)CCC1 [Example 576, (1R,4s)-4-(2-Fluoro-4-methoxy-5-(((3S*,4R*)-4-(((1-methylcyclobutyl)methyl)carbamoyl)tetrahydrofuran-3-yl)carbamoyl)phenoxy)-1-methylcyclohexane-1-carboxylic acid] | 118 | 
10 | COc1cc(F)c(OC2CCC(O)(C(=O)O)CC2)cc1C(=O)NC1C2CCC(C2)C1C(=O)Nc1cccc(S(=O)(=O)C(F)(F)F)c1 [Example 582, (1R,4r)-4-(2-Fluoro-4-methoxy-5-(((1R*,2R*,3S*,4S*)-3-((3-((trifluoromethyl)sulfonyl)phenyl)carbamoyl)bicyclo[2.2.1]heptan-2-yl)carbamoyl)phenoxy)-1-hydroxycyclohexane-1-carboxylic acid] | 104 | 29
11 | COc1cc(F)c(O[C@H]2CC[C@@](C)(C(=O)O)CC2)cc1C(=O)N[C@@H]1[C@H]2CC[C@H](C2)[C@@H]1C(=O)NCC1(OC)CCC1 [Example 593, (1S,4s)-4-(2-Fluoro-4-methoxy-5-(((1S,2R,3S,4R)-3-(((1-methoxycyclobutyl)methyl)carbamoyl)bicyclo[2.2.1]heptan-2-yl)carbamoyl)phenoxy)-1-methylcyclohexane-1-carboxylic acid] | 118 | 520
12 | COCC1(CNC(=O)[C@H]2[C@@H]3CC[C@@H](C3)[C@H]2NC(=O)c2cc(O[C@H]3CC[C@@](C)(C(=O)O)CC3)c(F)cc2OC)CCC1 [Example 594] | 96 | 530
13 | COc1cc(F)c(O[C@H]2CC[C@@](C)(C(=O)O)CC2)cc1C(=O)N[C@@H]1[C@H]2CC[C@H](C2)[C@@H]1C(=O)NCC1(C#N)CCC1 [Example 595] | 116 | 570
14 | COc1cc(F)c(O[C@H]2CC[C@@](C)(C(=O)O)CC2)cc1C(=O)N[C@@H]1[C@H]2CC[C@H](C2)[C@@H]1C(=O)NCCC(F)(F)F [Example 596] | 105 | 
15 | COc1cc(F)c(O[C@H]2CC[C@@](C)(C(=O)O)CC2)cc1C(=O)N[C@@H]1[C@H]2CC[C@H](C2)[C@@H]1C(=O)N[C@H](C)C(F)(F)F [Example 597] | 106 | 400
16 | COc1cc(F)c(O[C@H]2CC[C@@](C)(C(=O)O)CC2)cc1C(=O)N[C@@H]1[C@H]2CC[C@H](C2)[C@@H]1C(=O)NC1CCC1 [Example 598] | 99 | 890
17 | COc1cc(F)c(O[C@H]2CC[C@@](C)(C(=O)O)CC2)cc1C(=O)N[C@@H]1[C@H]2CC[C@H](C2)[C@@H]1C(=O)NC1CCCC1 [Example 599] | 91 | 260
18 | COc1cc(F)c(O[C@H]2CC[C@@](C)(C(=O)O)CC2)cc1C(=O)N[C@@H]1[C@H]2CC[C@H](C2)[C@@H]1C(=O)NC12CC(C1)C2 [Example 600] | 104 | 140
19 | COc1cc(F)c(O[C@H]2CC[C@@](C)(C(=O)O)CC2)cc1C(=O)N[C@@H]1[C@H]2CC[C@H](C2)[C@@H]1C(=O)N[C@@H](C)C(F)(F)F [Example 601] | 116 | 
20 | COc1cc(F)c(O[C@H]2CC[C@@](C)(C(=O)O)CC2)cc1C(=O)N[C@@H]1[C@H]2CC[C@H](C2)[C@@H]1C(=O)NC(C)(C)C [Example 602] | 100 | 250
21 | COc1cc(F)c(O[C@H]2CC[C@@](C)(C(=O)O)CC2)cc1C(=O)N[C@@H]1[C@H]2CC[C@H](C2)[C@@H]1C(=O)NC(C)(C)C(F)(F)F [Example 603] | 99 | 94
22 | COc1cc(F)c(O[C@H]2CC[C@@](C)(C(=O)O)CC2)cc1C(=O)N[C@@H]1[C@H]2CC[C@H](C2)[C@@H]1C(=O)N[C@H]1CCN(S(=O)(=O)C(F)(F)F)C1 [Example 606] | 90 | 420
23 | COc1cc(F)c(O[C@H]2CC[C@@](C)(C(=O)O)CC2)cc1C(=O)N[C@@H]1[C@H]2CC[C@H](C2)[C@@H]1C(=O)N[C@H]1CCCN(S(=O)(=O)C(F)(F)F)C1 [Example 607] | 92 | 160
24 | COc1cc(F)c(O[C@H]2CC[C@@](C)(C(=O)O)CC2)cc1C(=O)N[C@@H]1[C@H]2CC[C@H](C2)[C@@H]1C(=O)NCC1(F)CCC1 [Example 609] | 108 | 400
